Measurements from publication PMC4058456, “Jacobsen Catalyst as a Cytochrome P450 Biomimetic Model for the Metabolism of Monensin A” (BioMed Research International, 2014).
Converted amounts (≈) assume the structure as drawn. Read-outs that look alike come from different tables or passages of the source. Marks after values point to notes of the source that are not given here.

Key:
[1] = system: Escherichia coli ATCC 25922; test: Antimicrobial bioassay, minimal bactericidal concentration (MTT); assay type: cell-based
Description: (§1) The bioassays were carried out using the strains Staphylococcus aureus ATCC 25923, Staphylococcus aureus ATCC 43300 (MRSA-methicillin resistant), Staphylococcus epidermidis ATCC 14990, Pseudomonas aeruginosa ATCC 27853, and Escherichia coli ATCC 25922 all acquired from the American Type Culture Collection (ATCC). Approximately 5 × 10^5 microorganisms·mL^−1 were incubated in Muller Hinton broth in 96-well microtiter plates containing the samples to be tested. The compounds (monensin A, metabolite 1, and metabolite 2) were dissolved in dimethylsulfoxide (DMSO) and diluted into the medium to give 100, 50, 25, 12.5, 6.3, 3.1, 1.6, 0.8, 0.4, 0.2, 0.1, and 0.05 μg·mL^−1, as their final concentrations. The plates were incubated at 37°C and the bioassays were performed in triplicate. The cell death was determined by a MTT colorimetric method which was described by Andrews and Furtado et al.. The DMSO solution and chloramphenicol were used as controls of the experiment.

[2] = system: Pseudomonas aeruginosa ATCC 27853; test: as above; assay type: cell-based
Description: as §1

[3] = system: Staphylococcus aureus ATCC 25923; test: as above; assay type: cell-based; settings: for MBC: Staphylococcus aureus
Description: as §1

[4] = system: Staphylococcus aureus ATCC 43300 (MRSA-methicillin resistant); test: as above; assay type: cell-based; settings: for MBC: Staphylococcus aureus, read-out: Minimal bactericidal concentration
Description: as §1

[5] = system: Staphylococcus epidermidis ATCC 14990; test: as above; assay type: cell-based
Description: as §1

rat liver mitochondria [6] = test: Mitochondrial respiration (oxygen consumption, Clark-type electrode); settings: 1 μM
Description: (§2) Monensin A was diluted in ethanol to concentrations 0.01, 0.1, and 1 μM. All assays were performed in three replicates. Rat liver mitochondria were isolated by standard differential centrifugation according to Pereira et al. and the mitochondrial protein content was determined by the biuret method.
Mitochondrial respiration was monitored polarographically with an oxygraph (Hansatech) equipped with a Clark-type oxygen electrode. The mitochondria (1.0 mg protein) were incubated at 30°C in 1 mL of the respiratory medium containing 125 mM sucrose, 65 mM KCl, 10 mM HEPES-KOH, 0.5 mM EGTA, and 10 mM K2HPO4; pH 7.2. 5 mM glutamate and malate were used as the oxidizable substrates for complex I; and mitochondrial oxidative phosphorylation (state 3) was initiated using 400 nmol ADP.

rat liver mitochondria [7] = test: Mitochondrial membrane potential (safranin-o fluorescence); settings: 1 μM
Description: as §2
Mitochondrial Membrane potential (ΔΨ) was monitored spectrofluorimetrically using 10 μM safranin-o as a probe in a F-4500 spectrofluorometer (Hitachi) with the 495/586 nm excitation/emission wavelength pair. The mitochondria (1.0 mg protein·mL^−1) were incubated at 30°C in 2 mL of the standard reaction medium containing 125 mM sucrose, 65 mM KCl, and 10 mM HEPES-KOH, and CCCP (carbonyl cyanide 3-chlorophenylhydrazone) was added at the end of each experiment for the complete dissipation of the membrane potential.

rat liver mitochondria [8] = test: Mitochondrial swelling (apparent absorbance at 540 nm); settings: 1 μM
Description: as §2
Mitochondrial swelling was estimated from the decrease in apparent absorbance at 540 nm performed with a Model DU-70 spectrophotometer (Beckman). The mitochondria were incubated using 30°C in 2 mL of the standard reaction medium.

rat liver mitochondria [9] = test: Mitochondrial ROS production (H2DCFDA); settings: 1 μM
Description: as §2
Mitochondrial reactive oxygen species (ROS) production was monitored spectrofluorimetrically with 2′,7′-dichlorodihydrofluorescein diacetate (H2DCFDA) with the 503/529 nm excitation/emission wavelength pair, both using the standard reaction medium.

[10] = Biomimetic oxidation of monensin A catalysed by Jacobsen catalyst (CYP450 model), HPLC-ESI-MS; assay type: in vitro ADME; settings: catalyst:oxidant:monensin A 1:20:20, CH2Cl2, room temperature, 24 h
Description: Based on the previous studies by this laboratory, the oxidation reactions were performed in an Eppendorf tube (2 mL), under mechanical stirring (Vibrax VXR agitator) at room temperature for 24 h. The ideal molar ratio obtained for the reaction was 1 : 20 : 20 (for catalyst : oxidant : monensin A). This was achieved by adding 0.3 mmol·L^-1 : 6 mmol·L^-1 : 6 mmol·L^−1 in the 0.5 mL of reaction medium (CH2Cl2). The oxidants were m-CPBA, PhIO, t-BOOH, and H2O2. The products from monensin A oxidation were analyzed by HPLC-ESI-MS. Control reactions were carried out in the absence of catalyst under the same conditions as the catalytic runs and no products were detected.
LC-ESI-MS analyses were performed on a Varian LC-MS 1200L triple quadrupole apparatus coupled to a mass spectrometer with ESI ionization in the positive mode (Varian Medical Systems Inc., Palo Alto, CA). The chromatographic analysis was performed using an injection volume of 10 μL, sample concentration 50 μg·mL^−1 in an Xterra analytical column MS C-18 (150 × 2.1 mm, 5 μm) (Waters) and following gradient (MeOH : H2O): 0.1 min 70% MeOH, 20.0 min 98% MeOH, 21.0 min 30% MeOH, and 30.0 min 70% MeOH. The MS conditions were capillary voltage 3.2 kV, cone voltage 40 V, source temperature 40°C, and N2 desolvation temperature 350°C. The percentage of monensin A oxidation was determined by using a calibration curve of 10–100 μg·mL^−1. The resulting mass spectra were monitored over a m/z range of 610 to 800.

S. aureus ATCC 25923 = system: S. aureus ATCC 25923; design: method as in PMID 23509771; settings: cited from earlier work
[11] = system: S. epidermidis ATCC 12228; design: method as in PMID 23509771; settings: cited from earlier work
[12] = system: S. epidermidis ATCC 35984; design: method as in PMID 23509771; settings: cited from earlier work
Bacillus subtilis = system: Bacillus subtilis; design: method as in PMID 17702333; settings: bioautography against Bacillus subtilis; cited from earlier work
Streptococcus faecalis = system: Streptococcus faecalis; design: method as in PMID 17702333; settings: turbidimetric assay against Streptococcus faecalis; cited from earlier work
[13] = ATCC25922, E. coli ATCC 25922, read-out: Minimal bactericidal concentration
[14] = ATCC27853, P. aeruginosa ATCC 27853, read-out: Minimal bactericidal concentration
[15] = ATCC25923, S. aureus ATCC 25923, read-out: Minimal bactericidal concentration
[16] = ATCC14990, S. epidermidis ATCC 14990, read-out: Minimal bactericidal concentration
[17] = isolated rat liver mitochondria 1.0 mg protein·mL−1

O=C(N[C@H](CO)[C@H](O)c1ccc([N+](=O)[O-])cc1)C(Cl)Cl [Chloramphenicol, chloramphenicol, reference compound]
MBC [1, 13]: 3.1 µg/mL (≈ 9.59 µM) | MBC [2, 14]: 100 µg/mL (≈ 309 µM) | MBC [3, 15]: 6.3 µg/mL (≈ 19.5 µM) | MBC ([4]; S. aureus ATCC 43300 (MRSA)): 8.3 µg/mL (≈ 25.7 µM) | MBC [5, 16]: 6.3 µg/mL (≈ 19.5 µM)

CC[C@@]1([C@@H]2O[C@@H]([C@H]3O[C@@](O)(CO)[C@H](C)C[C@@H]3C)C[C@@H]2C)CC[C@H]([C@]2(C)CC[C@]3(C[C@H](O)[C@@H](C)[C@@H]([C@@H](C)[C@@H](OC)[C@H](C)C(=O)O)O3)O2)O1 [Monensin A]
ADP/O (phosphorylation efficiency) (rat liver mitochondria [6]; rat, pH 7.2): 1.498 ± 0.01^b | RCR (respiratory control ratio) (rat liver mitochondria [6]; rat, pH 7.2): 4.548 ± 0.16^b | V3 (state 3 respiration rate) (rat liver mitochondria [6]; rat, pH 7.2): 64.097 ± 2.35^a nmol O2/mg protein/min | V4 (state 4 respiration rate) (rat liver mitochondria [6]; rat, pH 7.2): 14.12 ± 0.97^b nmol O2/mg protein/min | decrease of respiratory control ratio (RCR) (rat liver mitochondria [6]; rat, pH 7.2): 32.59% | increase of state 4 of oxygen consumption (rat liver mitochondria [6]; rat, pH 7.2): 44.11% | reduction in ADP/O (rat liver mitochondria [6]; rat, pH 7.2): 47.73% | decrease on the mitochondrial membrane potential (rat liver mitochondria [7]; rat): 23.29% | mitochondrial swelling, effect on the apparent turbidity (rat liver mitochondria [8]; rat): 54.61% | increase in accumulation of free radicals (ROS) (rat liver mitochondria [9]; rat): 12.14% | MBC [1, 13]: > 100 µg/mL | MBC [2, 14]: > 100 µg/mL | MBC [3, 15]: 3.1 µg/mL (≈ 4.62 µM) | MBC ([4]; S. aureus ATCC 43300 (MRSA)): 6.3 µg/mL (≈ 9.39 µM) | MBC [5, 16]: 25 µg/mL (≈ 37.3 µM) | monensin conversion ([10]; oxidant H2O2): 26% | monensin conversion ([10]; oxidant PhIO): 36% | monensin conversion ([10]; oxidant m-CPBA): 27% | monensin conversion ([10]; oxidant t-BOOH): 14% | antimicrobial activity concentration (S. aureus ATCC 25923): 2.9 µg/mL | antimicrobial activity concentration [11]: 2.9 µg/mL | antimicrobial activity concentration [12]: 5.8 µg/mL

CCC1(C2OC(C3OC(O)(CO)C(C)C(O)C3C)CC2C)CCC(C2(C)CCC3(CC(O)C(C)C(C(C)C(OC)C(C)C(=O)O)O3)O2)O1 (centres unmarked) [Product 2, 12-hydroxy monensin A]
effect on mitochondrial respiratory parameters (in words) (rat liver mitochondria [6]): none of these detrimental effects | ADP/O (phosphorylation efficiency) (rat liver mitochondria [6]; [17]): 2.728 ± 0.06^a | RCR (respiratory control ratio) (rat liver mitochondria [6]; [17]): 6.786 ± 0.15^a | V3 (state 3 respiration rate) (rat liver mitochondria [6]; [17]): 66.730 ± 1.95^a nmol O2/mg protein/min | V4 (state 4 respiration rate) (rat liver mitochondria [6]; [17]): 9.832 ± 0.07^a nmol O2/mg protein/min | effect on mitochondrial membrane potential (in words) (rat liver mitochondria [7]): no effect | effect on mitochondrial swelling (in words) (rat liver mitochondria [8]): no effect | effect on mitochondrial ROS accumulation (in words) (rat liver mitochondria [9]): no effect | MBC [1, 13]: > 100 µg/mL | MBC [2, 14]: > 100 µg/mL | Minimal bactericidal concentration ([3]; S. aureus ATCC 25923): > 100 µg/mL | MBC [3, 15]: > 100 µg/mL | Minimal bactericidal concentration ([4]; S. aureus ATCC 43300 (MRSA)): > 100 µg/mL | MBC ([4]; S. aureus ATCC 43300 (MRSA)): > 100 µg/mL | MBC [5, 16]: > 100 µg/mL

CCC1(C2OC(C3OC(O)(CO)C(C)CC3C)CC2C)CCC(C2(C)CCC3(CC(O)C(C)C(C(C)C(O)C(C)C(=O)O)O3)O2)O1 (centres unmarked) [Product 1, 3-O-demethyl monensin A]
effect on mitochondrial respiratory parameters (in words) (rat liver mitochondria [6]): none of these detrimental effects | ADP/O (phosphorylation efficiency) (rat liver mitochondria [6]; [17]): 2.757 ± 0.09^a | RCR (respiratory control ratio) (rat liver mitochondria [6]; [17]): 6.623 ± 0.27^a | V3 (state 3 respiration rate) (rat liver mitochondria [6]; [17]): 66.363 ± 2.29^a nmol O2/mg protein/min | V4 (state 4 respiration rate) (rat liver mitochondria [6]; [17]): 10.02 ± 0.11^a nmol O2/mg protein/min | effect on mitochondrial membrane potential (in words) (rat liver mitochondria [7]): no effect | effect on mitochondrial swelling (in words) (rat liver mitochondria [8]): no effect | effect on mitochondrial ROS accumulation (in words) (rat liver mitochondria [9]): no effect | MBC ([1]; ATCC25922, read-out: Minimal bactericidal concentration): > 100 µg/mL | MBC ([2]; ATCC27853, read-out: Minimal bactericidal concentration): > 100 µg/mL | Minimal bactericidal concentration ([3]; S. aureus ATCC 25923): 25.0 µg/mL (≈ 38.1 µM) | MBC ([3]; ATCC25923, read-out: Minimal bactericidal concentration): 25 µg/mL (≈ 38.1 µM) | Minimal bactericidal concentration ([4]; S. aureus ATCC 43300 (MRSA)): 50.0 µg/mL (≈ 76.1 µM) | MBC [4]: 50 µg/mL (≈ 76.1 µM) | MBC ([5]; ATCC14990, read-out: Minimal bactericidal concentration): > 100 µg/mL | antimicrobial activity relative to monensin (Bacillus subtilis): 5% | antimicrobial activity relative to monensin (Streptococcus faecalis): 5%
